By logP is commonly meant the decadic logarithm of the partition coefficient of the neutral form, usually between octanol and water. What is called inhibition is the drop in the measured response relative to a control, in per cent. As usually defined, the chromatographic logP is lipophilicity estimated from chromatographic retention. A high value points to a more lipophilic compound.

In one series the test system is Fusarium graminearum. Kind of series: microbe, parasite or virus in culture. It counts as cell-based.
The subject of another series is Sphaerotheca fuliginea. Kind of series: In vivo preventive test on Sphaerotheca fuliginea (cucumber). The conditions noted are these: 500 ppm of active ingredient, evaluated 7 days after inoculation. The source says: One day after this treatment, the plants are inoculated with an aqueous spore suspension of Sphaerotheca fuliginea.
The next series concerns Alternaria solani. Kind of series: In vivo preventive test on Alternaria solani (tomato). Conditions: 500 ppm of active ingredient, evaluated 7 days after inoculation. From the text: One day after this treatment, the plants are inoculated with an aqueous spore suspension of Alternaria solani.
The test system of a further series is Pyrenophora teres. Kind of series: In vivo preventive test on Pyrenophora teres (barley). The conditions noted are these: 500 ppm of active ingredient, evaluated 7-9 days after inoculation. The source says:
One day after this treatment, the plants are inoculated with an aqueous spore suspension of Pyrenophora teres.

The subject of another series is Cochliobolus miyabeanus. Kind of series: In vivo protective test on Cochliobolus miyabeanus (rice). The conditions noted are these: evaluated 4 days after inoculation; for Efficacy (protection): protective, 10 ppm of active ingredient (lowest of 250, 100, 50 and 10 ppm).
The nature of series [1]: logP by HPLC on reversed-phase column (C 18), EEC Directive 79/831 Annex V.A8. It counts as physicochemical. As to the method:
In table 1, the logP values were determined in accordance with EEC Directive 79/831 Annex V.A8 by HPLC (High Performance Liquid Chromatography) on a reversed-phase column (C 18), using the method described below: Temperature: 40° C.; […]

The test system of the next series is aflatoxines production. Kind of series: microbe, parasite or virus in culture. Type of series: cell-based, Aspergillus parasiticus.
For series [2], the system named is Blumeria graminis f.sp. hordei. Kind of series: In vivo preventive test on Blumeria graminis (barley). Conditions: 500 ppm of active ingredient, evaluated 7 days after inoculation. The source says: (§1) To test for preventive activity, young plants are sprayed with the preparation of active compound or active compound combination at the stated rate of application.

A further series deals with Botrytis cinerea. Kind of series: In vivo preventive test on Botrytis cinerea (beans). The conditions noted are these: preventive, beans, 100 ppm of active ingredient, lesion size 2 days after inoculation. The source says:
To test for preventive activity, young plants are sprayed with the preparation of active compound. After the spray coating has dried on, 2 small pieces of agar covered with growth of Botrytis cinerea are placed on each leaf.

Series [3] has as its system Fusarium nivale (var. majus). Kind of series: In vivo preventive test on Fusarium nivale (wheat). The conditions noted are these: 500 ppm of active ingredient, evaluated 5 days after inoculation.
Text: as §1

The test system of the next series is Venturia inaequalis. Kind of series: In vivo preventive test on Venturia inaequalis (apple scab). The conditions noted are these: 100 ppm of active ingredient, evaluated 10 days after inoculation.
In another series the test system is Septoria tritici. Kind of series: In vivo preventive test on Septoria tritici (wheat). Conditions: 500 ppm of active ingredient, evaluated 21 days after inoculation.
Text: as §1

For a further series, the system named is Uromyces appendiculatus. Kind of series: In vivo preventive test on Uromyces appendiculatus (beans). Conditions: 100 ppm of active ingredient, evaluated 10 days after inoculation.
The mark [4] stands for this setting: dose 250 ppm of active ingredient.
Where [5] appears, read: dose 10 ppm of active ingredient.
The mark [6] stands for this setting: dose 50 ppm of active ingredient.
The mark [7] stands for this setting: dose 100 ppm of active ingredient.

As to `CC(Cc1cc(Cl)ccc1Cl)NC(=O)c1c(C(F)F)nn(C)c1F` (stereo not shown) [Example 92], the “% Inhibition of fungal growth at 50 μM” value in the series with Fusarium graminearum came to 100%. Moreover, the Efficacy is recorded as 88% in the series with Sphaerotheca fuliginea, 100% with Alternaria solani, 100% in the series on Pyrenophora teres and 90% in the series on Cochliobolus miyabeanus (setting [4]). The log partition coefficient (logP) in series [1] is 3.37. In addition, the “% Inhibition of Aflatoxin at 50 μM” value in the series with aflatoxines production is on record as 100%.
Take `COC(c1ccc(Cl)cc1Cl)C(C)NC(=O)c1cn(C)nc1C(F)F` (stereo not shown) [1.14 from WO-2008/148570, N-[1-(2,4-dichlorophenyl)-1-methoxypropan-2-yl]-3-(difluoromethyl)-1-methyl-1H-pyrazole-4-carboxamide, reference compound]: the Efficacy in the series with Cochliobolus miyabeanus (setting [5]) was found to be 20%; in the series with Cochliobolus miyabeanus (setting [6]), 80%; with Cochliobolus miyabeanus (setting [7]), 92%; with Cochliobolus miyabeanus (setting [4]) it was 98%. Besides, the “Efficacy (protection)” value in the series on Cochliobolus miyabeanus is recorded as “less than 20%”.
With `COC(c1ccc(Cl)cc1Cl)C(C)NC(=O)c1c(C(F)F)nn(C)c1F` (stereo not shown) [Example 73, N-[1-(2,4-dichlorophenyl)-1-methoxypropan-2-yl]-3-(difluoromethyl)-5-fluoro-1-methyl-1H-pyrazole-4-carboxamide], the inhibition at 50 µM in the series on Fusarium graminearum (Fusarium graminearum, 168 h, read-out: % Inhibition of fungal growth at 50 μM) turned out to be 100%; with aflatoxines production (Aspergillus parasiticus, 168 h, read-out: % Inhibition of Aflatoxin at 50 μM) it was 100%. For the same compound, the Efficacy in series [2] is recorded as 100%; in series [3], 88%; in the series on Sphaerotheca fuliginea, 100%; in the series with Alternaria solani, 100%; with Pyrenophora teres it was 100%; in the series on Venturia inaequalis, 100%. For the same compound, the Efficacy with Cochliobolus miyabeanus (setting [5]) is given as 65%; with Cochliobolus miyabeanus (setting [6]) it was 92%; with Cochliobolus miyabeanus (setting [7]), 97%; with Cochliobolus miyabeanus (setting [4]) it was 98%; in the series with Septoria tritici it was 100%. Also, in the series with Botrytis cinerea (Botrytis cinerea, 48 h, read-out: Efficacy), the pest or weed control at 100 ppm is 99%. For the same compound, the “Efficacy (protection)” value in the series with Cochliobolus miyabeanus is recorded as “at least 65%”. The compound also returned a logP in [1] of 3.75. Moreover, the chromatographic logP in series [1] (logP) is 3.65.
`Cn1nc(C(F)F)c(C(=O)NCCc2ncc(C(F)(F)F)cc2Cl)c1F` [Example 187]: in the series on Fusarium graminearum, the “% Inhibition of fungal growth at 50 μM” value is on record as 100%. In addition, the Efficacy came to 94% in [2]; 100% in the series with Botrytis cinerea; 100% with Alternaria solani; 100% in the series with Pyrenophora teres; 100% in the series with Venturia inaequalis; 85% with Cochliobolus miyabeanus (setting [4]). Further, the Efficacy is on record as 96% in the series on Uromyces appendiculatus and 100% in the series with Septoria tritici. For the same compound, in series [1], the log partition coefficient (logP) came out at 2.75. Besides, the “% Inhibition of Aflatoxin at 50 μM” value with aflatoxines production came to 100%.
On to `CC(Cc1cccc(Cl)c1)NC(=O)c1c(C(F)F)nn(C)c1F` (stereo not shown) [Example 50], for which, in the series on Fusarium graminearum, the “% Inhibition of fungal growth at 50 μM” value stood at 100%. The Efficacy worked out at 100% in the series with Alternaria solani, 100% in the series with Pyrenophora teres and 90% with Cochliobolus miyabeanus (setting [4]). This compound yielded a logP in series [1] of 3.02. The “% Inhibition of Aflatoxin at 50 μM” value in the series on aflatoxines production was determined as 100%.

The record behind these values is patent US9232799B2, “N-[(het)arylethyl)] pyrazole(thio)carboxamides and their heterosubstituted analogues” (BAYER INTELLECTUAL PROPERTY GMBH, priority 2010, dated 2016).
